# Assay results published in PubChem BioAssay AID651879 (NMMLSC, 2012).
# Activity calls are given as the source filed them. The rule behind the calls is not given here.
# Target: Botulinum neurotoxin type A light chain protease (Clostridium botulinum A str. ATCC 3502)
# Assay: Clostridium botulinum neurotoxin A protease inhibition, microsphere cleavage flow cytometry, dose response (AID 651879)
# Conditions: multiplex microsphere protease cleavage assay
row,Compound,EC50
1,CSc1ccc(C2=NN(c3ccc(C(=O)N4CCCCC4)cc3)C(c3ccccc3)C2)cc1 (centres undefined),> 20 µM (inactive)
2,CC(C)CNC(=O)c1ccc(N2N=C(c3ccccc3)CC2c2ccccc2)cc1 (centres undefined),> 20 µM (inactive)
3,COc1ccc(N2N=C(c3ccccc3)CC2c2ccccc2)cc1 (centres undefined),> 20 µM (inactive)
4,O=C(c1ccc(N2N=C(c3ccccc3)CC2c2ccccc2)cc1)N1CCOCC1 (centres undefined),> 20 µM (inactive)
5,CS(=O)(=O)c1ccc(N2N=C(c3ccccc3)CC2c2ccccc2)cc1 (centres undefined),> 20 µM (inactive)
6,c1ccc(C2CC(c3ccncc3)=NN2c2ccccc2)cc1 (centres undefined),> 20 µM (inactive)
7,NS(=O)(=O)c1ccc(N2N=C(c3cccnc3)CC2c2ccccc2)cc1 (centres undefined),> 20 µM (inactive)
8,O=[N+]([O-])c1ccc(N2N=C(c3ccccc3)CC2c2ccccc2)cc1 (centres undefined),> 20 µM (inactive)
9,O=C(c1ccc(N2N=C(c3ccccc3)CC2c2ccccc2)cc1)N1CCCCC1 (centres undefined),> 20 µM (inactive)
10,CSc1ccc(C2=NN(c3ccccc3)C(c3ccccc3)C2)cc1 (centres undefined),> 20 µM (inactive)
11,c1ccc(-c2cc(-c3ccccc3)n(-c3ccccc3)n2)cc1,> 20 µM (inactive)
12,CNC(=O)c1ccc(N2N=C(c3ccccc3)CC2c2ccccc2)cc1 (centres undefined),> 20 µM (inactive)
13,CSc1ccc(C2=NN(c3ccc(S(C)(=O)=O)cc3)C(c3ccccc3)C2)cc1 (centres undefined),> 20 µM (inactive)
14,NS(=O)(=O)c1ccc(N2N=C(c3ccccc3)CC2c2ccccc2)cc1 (centres undefined),> 20 µM (inactive)
15,CNC(=O)c1ccc(N2N=C(c3ccc(SC)cc3)CC2c2ccccc2)cc1 (centres undefined),> 20 µM (inactive)
16,c1ccc(C2CC(c3cccnc3)=NN2c2ccccc2)cc1 (centres undefined),> 20 µM (inactive)
17,CSc1ccc(C2=NN(c3ccc([N+](=O)[O-])cc3)C(c3ccccc3)C2)cc1 (centres undefined),0.5 µM
18,COc1ccc(N2N=C(c3ccncc3)CC2c2ccccc2)cc1 (centres undefined),> 20 µM (inactive)
19,c1ccc(C2CC(c3ccccn3)=NN2c2ccccc2)cc1 (centres undefined),> 20 µM (inactive)
20,CC(C)NC(=O)c1ccc(N2N=C(c3ccccc3)CC2c2ccccc2)cc1 (centres undefined),> 20 µM (inactive)
21,COc1ccc(N2N=C(c3cccnc3)CC2c2ccccc2)cc1 (centres undefined),> 20 µM (inactive)
22,NS(=O)(=O)c1ccc(N2N=C(c3ccncc3)CC2c2ccccc2)cc1 (centres undefined),> 20 µM (inactive)
23,COc1ccc(N2N=C(c3ccccn3)CC2c2ccccc2)cc1 (centres undefined),> 20 µM (inactive)
24,c1ccc(C2=NN(c3ccccc3)C(c3ccccc3)C2)cc1 (centres undefined),> 20 µM (inactive)
25,CSc1ccc(C2=NN(c3ccc(S(N)(=O)=O)cc3)C(c3ccccc3)C2)cc1 (centres undefined),> 20 µM (inactive)
26,CSc1ccc(C2=NN(c3ccc(C(=O)N4CCOCC4)cc3)C(c3ccccc3)C2)cc1 (centres undefined),> 20 µM (inactive)
27,CS(=O)(=O)c1ccc(N2N=C(c3cccnc3)CC2c2ccccc2)cc1 (centres undefined),> 20 µM (inactive)
28,COc1ccc(N2N=C(c3ccc(SC)cc3)CC2c2ccccc2)cc1 (centres undefined),> 20 µM (inactive)
29,CS(=O)(=O)c1ccc(N2N=C(c3ccncc3)CC2c2ccccc2)cc1 (centres undefined),> 20 µM (inactive)
